Laboratory results from PubChem BioAssay AID2060882 (Molecular Pharmacology Branch, DTP, NCI, 2025).

Test system: 898857-211-R-J1-PDC complex spheroids, growth % test/control
Assay: Anticancer human tumor 898857-211-R-J1-PDC patient-derived melanoma cell line growth inhibition [RAS]
Conditions: for viability, T/C: stronger effect = lower value
Summary of the method: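 Multi-cell-type spheroids: tumor cells plus HUVEC endothelial cells and mesenchymal stem cells. RAS-pathway inhibitors were combined with targeted agents, each dosed in half-log steps down from clinical Cmax, or from 10 microM when Cmax was unknown.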

[1] = curve of first compound, second compound 0.0316 µM
[2] = curve of first compound, second compound 0.1 µM
[3] = curve of first compound, second compound 0.316 µM
[4] = curve of first compound, second compound 1 µM
[5] = second compound 0.0316 µM, first compound 0.0316 µM
[6] = second compound 0.0316 µM, first compound 0.1 µM
[7] = second compound 0.0316 µM, first compound 0.316 µM
[8] = second compound 0.0316 µM, first compound 1 µM
[9] = second compound 0.0316 µM, first compound 3.16 µM
[10] = second compound 0.0316 µM, first compound 10 µM
[11] = second compound 0.1 µM, first compound 0.0316 µM
[12] = second compound 0.1 µM, first compound 0.1 µM
[13] = second compound 0.1 µM, first compound 0.316 µM
[14] = second compound 0.1 µM, first compound 1 µM
[15] = second compound 0.1 µM, first compound 3.16 µM
[16] = second compound 0.1 µM, first compound 10 µM
[17] = second compound 0.316 µM, first compound 0.0316 µM
[18] = second compound 0.316 µM, first compound 0.1 µM
[19] = second compound 0.316 µM, first compound 0.316 µM
[20] = second compound 0.316 µM, first compound 1 µM
[21] = second compound 0.316 µM, first compound 3.16 µM
[22] = second compound 0.316 µM, first compound 10 µM
[23] = second compound 1 µM, first compound 0.0316 µM
[24] = second compound 1 µM, first compound 0.1 µM
[25] = second compound 1 µM, first compound 0.316 µM
[26] = second compound 1 µM, first compound 1 µM
[27] = second compound 1 µM, first compound 3.16 µM
[28] = second compound 1 µM, first compound 10 µM
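Note: spheroids exposed to compound for seven days before readout.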
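Throughout, for viability, T/C: 100% = DMSO vehicle control wells.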

CC(C)NCC(C(=O)N1CCN(c2ncnc3c2C(C)CC3O)CC1)c1ccc(Cl)cc1 (centres undefined) + CCn1c(-c2cccnc2C(C)OC)c2c3cc(ccc31)N1CCOC(CC(NC(=O)C(C(C)C)N(C)C(=O)C3(F)CCN(C(=O)C#CC(C)(C)N(C)C)CC3)C(=O)N3CCCC(N3)C(=O)OCC(C)(C)C2)C1
IC50 (curve of first compound, second compound 0.000949 µM): > 10 µM
IC50 (curve of first compound, second compound 0.003 µM): > 10 µM
IC50 (curve of first compound, second compound 0.00949 µM): 9.66 µM
IC50 (curve of first compound, second compound 0.03 µM): 8.56 µM
IC50 (curve of first compound, second compound 0.0949 µM): 5.46 µM
IC50 (curve of first compound, second compound 0.3 µM): 3.31 µM
viability, T/C (second compound 0.000949 µM, first compound 0.0316 µM): 111%
viability, T/C (second compound 0.000949 µM, first compound 0.1 µM): 101%
viability, T/C (second compound 0.000949 µM, first compound 0.316 µM): 90.9%
viability, T/C (second compound 0.000949 µM, first compound 1 µM): 91.6%
viability, T/C (second compound 0.000949 µM, first compound 3.16 µM): 65.4%
viability, T/C (second compound 0.000949 µM, first compound 10 µM): 50.9%
viability, T/C (second compound 0.003 µM, first compound 0.0316 µM): 115%
viability, T/C (second compound 0.003 µM, first compound 0.1 µM): 117%
viability, T/C (second compound 0.003 µM, first compound 0.316 µM): 103%
viability, T/C (second compound 0.003 µM, first compound 1 µM): 82.1%
viability, T/C (second compound 0.003 µM, first compound 3.16 µM): 79.6%
viability, T/C (second compound 0.003 µM, first compound 10 µM): 57.2%
viability, T/C (second compound 0.00949 µM, first compound 0.0316 µM): 113%
viability, T/C (second compound 0.00949 µM, first compound 0.1 µM): 110%
viability, T/C (second compound 0.00949 µM, first compound 0.316 µM): 102%
viability, T/C (second compound 0.00949 µM, first compound 1 µM): 84.8%
viability, T/C (second compound 0.00949 µM, first compound 3.16 µM): 73%
viability, T/C (second compound 0.00949 µM, first compound 10 µM): 48.7%
viability, T/C (second compound 0.03 µM, first compound 0.0316 µM): 112%
viability, T/C (second compound 0.03 µM, first compound 0.1 µM): 100%
viability, T/C (second compound 0.03 µM, first compound 0.316 µM): 97.3%
viability, T/C (second compound 0.03 µM, first compound 1 µM): 91.1%
viability, T/C (second compound 0.03 µM, first compound 3.16 µM): 74.4%
viability, T/C (second compound 0.03 µM, first compound 10 µM): 45.6%
viability, T/C (second compound 0.0949 µM, first compound 0.0316 µM): 92%
viability, T/C (second compound 0.0949 µM, first compound 0.1 µM): 89.4%
viability, T/C (second compound 0.0949 µM, first compound 0.316 µM): 92.7%
viability, T/C (second compound 0.0949 µM, first compound 1 µM): 76.4%
viability, T/C (second compound 0.0949 µM, first compound 3.16 µM): 60.1%
viability, T/C (second compound 0.0949 µM, first compound 10 µM): 39.7%
viability, T/C (second compound 0.3 µM, first compound 0.0316 µM): 75%
viability, T/C (second compound 0.3 µM, first compound 0.1 µM): 72.7%
viability, T/C (second compound 0.3 µM, first compound 0.316 µM): 69.5%
viability, T/C (second compound 0.3 µM, first compound 1 µM): 55.9%
viability, T/C (second compound 0.3 µM, first compound 3.16 µM): 53.5%
viability, T/C (second compound 0.3 µM, first compound 10 µM): 37.1%

Cc1nc(N2CCC3(CC2)COC(C)C3N)c(CO)nc1Sc1ccnc(N)c1Cl (centres undefined) + C#Cc1c(F)ccc2cc(O)cc(-c3ncc4c(N5CC6CCC(C5)N6)nc(OCC56CCCN5CC(F)C6)nc4c3F)c12
IC50 [1]: > 10 µM
IC50 [2]: > 10 µM
IC50 [3]: > 10 µM
IC50 [4]: > 10 µM
IC50 (curve of first compound, second compound 3.16 µM): > 10 µM
IC50 (curve of first compound, second compound 10 µM): < 0.0316 µM
viability, T/C [5]: 117%
viability, T/C [6]: 91.8%
viability, T/C [7]: 100%
viability, T/C [8]: 97.3%
viability, T/C [9]: 89.8%
viability, T/C [10]: 88.3%
viability, T/C [11]: 103%
viability, T/C [12]: 96.6%
viability, T/C [13]: 96.2%
viability, T/C [14]: 87.1%
viability, T/C [15]: 97.2%
viability, T/C [16]: 86.3%
viability, T/C [17]: 101%
viability, T/C [18]: 102%
viability, T/C [19]: 102%
viability, T/C [20]: 98.2%
viability, T/C [21]: 103%
viability, T/C [22]: 99%
viability, T/C [23]: 104%
viability, T/C [24]: 108%
viability, T/C [25]: 107%
viability, T/C [26]: 104%
viability, T/C [27]: 96.6%
viability, T/C [28]: 108%
viability, T/C (second compound 3.16 µM, first compound 0.0316 µM): 96.8%
viability, T/C (second compound 3.16 µM, first compound 0.1 µM): 108%
viability, T/C (second compound 3.16 µM, first compound 0.316 µM): 86.3%
viability, T/C (second compound 3.16 µM, first compound 1 µM): 106%
viability, T/C (second compound 3.16 µM, first compound 3.16 µM): 103%
viability, T/C (second compound 3.16 µM, first compound 10 µM): 90.8%
viability, T/C (second compound 10 µM, first compound 0.0316 µM): 37.6%
viability, T/C (second compound 10 µM, first compound 0.1 µM): 45.1%
viability, T/C (second compound 10 µM, first compound 0.316 µM): 49%
viability, T/C (second compound 10 µM, first compound 1 µM): 52.2%
viability, T/C (second compound 10 µM, first compound 3.16 µM): 38.2%
viability, T/C (second compound 10 µM, first compound 10 µM): 15.8%

CC(=O)OC12COC1CC(O)C1(C)C(=O)C(O)C3=C(C)C(OC(=O)C(O)C(NC(=O)OC(C)(C)C)c4ccccc4)CC(O)(C(OC(=O)c4ccccc4)C21)C3(C)C (centres undefined) + C=CC(=O)N1CCN(c2nc(OCC3CCCN3C)nc3c(F)c(-c4nc(N)cc(C)c4C(F)(F)F)c(Cl)cc23)C(C)C1
IC50 (curve of first compound, second compound 0.00316 µM): < 0.0316 µM
IC50 (curve of first compound, second compound 0.01 µM): < 0.0316 µM
IC50 [1]: < 0.0316 µM
IC50 [2]: < 0.0316 µM
IC50 [3]: < 0.0316 µM
IC50 [4]: < 0.0316 µM
viability, T/C (second compound 0.00316 µM, first compound 0.0316 µM): 12.3%
viability, T/C (second compound 0.00316 µM, first compound 0.1 µM): 15.6%
viability, T/C (second compound 0.00316 µM, first compound 0.316 µM): 14.2%
viability, T/C (second compound 0.00316 µM, first compound 1 µM): 15.5%
viability, T/C (second compound 0.00316 µM, first compound 3.16 µM): 21.2%
viability, T/C (second compound 0.00316 µM, first compound 10 µM): 20.4%
viability, T/C (second compound 0.01 µM, first compound 0.0316 µM): 12%
viability, T/C (second compound 0.01 µM, first compound 0.1 µM): 13.7%
viability, T/C (second compound 0.01 µM, first compound 0.316 µM): 10.5%
viability, T/C (second compound 0.01 µM, first compound 1 µM): 14.5%
viability, T/C (second compound 0.01 µM, first compound 3.16 µM): 21.1%
viability, T/C (second compound 0.01 µM, first compound 10 µM): 19.6%
viability, T/C [5]: 13.1%
viability, T/C [6]: 13.1%
viability, T/C [7]: 14.3%
viability, T/C [8]: 14.8%
viability, T/C [9]: 24.2%
viability, T/C [10]: 20%
viability, T/C [11]: 11.5%
viability, T/C [12]: 15.1%
viability, T/C [13]: 14.3%
viability, T/C [14]: 16.5%
viability, T/C [15]: 16.2%
viability, T/C [16]: 19.9%
viability, T/C [17]: 12.8%
viability, T/C [18]: 15.5%
viability, T/C [19]: 14.2%
viability, T/C [20]: 16.9%
viability, T/C [21]: 14.7%
viability, T/C [22]: 21.1%
viability, T/C [23]: 12%
viability, T/C [24]: 13.3%
viability, T/C [25]: 12.1%
viability, T/C [26]: 15.4%
viability, T/C [27]: 19.4%
viability, T/C [28]: 15.2%

CCc1c2c(nc3ccc(O)cc13)-c1cc3c(c(=O)n1C2)COC(=O)[C@]3(O)CC
viability, T/C (compound 0.000949 µM): 96.5% [middle of 4 runs]
viability, T/C (compound 0.003 µM): 65.1% [middle of 4 runs]
viability, T/C (compound 0.00949 µM): 30.4% [middle of 4 runs]
viability, T/C (compound 0.03 µM): 10.2% [middle of 4 runs]
viability, T/C (compound 0.0949 µM): 7.84% [middle of 4 runs]
viability, T/C (compound 0.3 µM): 7.49% [middle of 4 runs]
IC50 (curve of compound): 4.92 nM [middle of 4 runs]

CC(C)NCC(C(=O)N1CCN(c2ncnc3c2C(C)CC3O)CC1)c1ccc(Cl)cc1 (centres undefined)
viability, T/C (compound 0.1 µM): 101% [middle of 4 runs]
viability, T/C (compound 0.316 µM): 104% [middle of 4 runs]
viability, T/C (compound 1 µM): 93.2% [middle of 4 runs]
viability, T/C (compound 3.16 µM): 78.1% [middle of 4 runs]
viability, T/C (compound 10 µM): 58.9% [middle of 4 runs]
IC50 (curve of compound): > 10 µM
